biological target: T1, human PAH with the R408W mutation (Homo sapiens, UniProt P00439, R408W); assay: Cell Based Phenylalanine Flux Assay; conditions: A375 cells expressing human R408W PAH; 24 hrs compound incubation; 13C-Tyrosine by LC-MS; average where tested multiple times; read-out: AC50
T1 construct: expressed in transfected cells
T1 sequence (P00439 1-452 R408W): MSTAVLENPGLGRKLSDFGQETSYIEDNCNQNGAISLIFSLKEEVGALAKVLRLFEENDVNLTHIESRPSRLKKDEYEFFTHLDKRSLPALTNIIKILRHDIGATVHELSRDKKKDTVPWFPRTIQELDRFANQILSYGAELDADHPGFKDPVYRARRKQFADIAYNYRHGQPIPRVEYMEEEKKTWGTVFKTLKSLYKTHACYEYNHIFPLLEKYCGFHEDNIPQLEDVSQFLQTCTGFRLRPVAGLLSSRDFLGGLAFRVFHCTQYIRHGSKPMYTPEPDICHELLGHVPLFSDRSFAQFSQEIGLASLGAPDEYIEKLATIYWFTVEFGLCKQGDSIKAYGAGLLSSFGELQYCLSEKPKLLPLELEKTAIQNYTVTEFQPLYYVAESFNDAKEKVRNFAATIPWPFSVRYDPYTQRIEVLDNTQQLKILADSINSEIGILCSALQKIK

Row | Structure (SMILES) | AC50
1 | COCc1nc(Br)c(C(=O)N2CCc3[nH]cnc3[C@@H]2c2nc3c(F)cccc3s2)o1 [Example 1775, (R)-(4-bromo-2-(methoxymethyl)oxazol-5-yl)(4-(4-fluorobenzo[d]thiazol-2-yl)-6,7-dihydro-1H-imidazo[4,5-c]pyridin-5(4H)-yl)methanone] | 500 to 1000 nM
2 | COCc1nc(Br)c(C(=O)N2CCc3[nH]cnc3[C@H]2c2nc3c(F)cccc3s2)o1 [Example 1776] | < 500 nM
3 | O=C(c1nnc(-c2cnn(C(F)F)c2)o1)N1CCc2[nH]cnc2[C@H]1c1nc2ccccc2s1 [Example 1777] | < 500 nM
4 | O=C(c1nnc(-c2cnn(C(F)F)c2)o1)N1CCc2[nH]cnc2[C@@H]1c1nc2ccccc2s1 [Example 1778, (R)-(4-(benzo[d]thiazol-2-yl)-6,7-dihydro-1H-imidazo[4,5-c]pyridin-5(4H)-yl)(5-(1-(difluoromethyl)-1H-pyrazol-4-yl)-1,3,4-oxadiazol-2-yl)methanone] | > 5000 nM
5 | N#Cc1nn2cc(Br)ccc2c1C(=O)N1CCc2[nH]cnc2[C@H]1c1nc2ccccc2s1 [Example 1779, (S)-3-(4-(benzo[d]thiazol-2-yl)-4,5,6,7-tetrahydro-1H-imidazo[4,5-c]pyridine-5-carbonyl)-6-bromopyrazolo[1,5-a]pyridine-2-carbonitrile] | < 500 nM
6 | N#Cc1nn2cc(Br)ccc2c1C(=O)N1CCc2[nH]cnc2[C@@H]1c1nc2ccccc2s1 [Example 1780, (R)-3-(4-(benzo[d]thiazol-2-yl)-4,5,6,7-tetrahydro-1H-imidazo[4,5-c]pyridine-5-carbonyl)-6-bromopyrazolo[1,5-a]pyridine-2-carbonitrile] | 1000 to 5000 nM
7 | CN(C)Cc1nc(C(F)F)c(C(=O)N2CCc3[nH]cnc3[C@H]2c2nc3ccccc3s2)o1 [Example 1781] | < 500 nM
8 | CN(C)Cc1nc(C(F)F)c(C(=O)N2CCc3[nH]cnc3[C@@H]2c2nc3ccccc3s2)o1 [Example 1782, (R)-(4-(benzo[d]thiazol-2-yl)-6,7-dihydro-1H-imidazo[4,5-c]pyridin-5(4H)-yl)(4-(difluoromethyl)-2-((dimethylamino)methyl)oxazol-5-yl)methanone] | 500 to 1000 nM
9 | Cc1cc(F)ccc1-c1nnc(C(=O)N2CCc3[nH]cnc3[C@H]2c2nc3ccccc3s2)o1 [Example 1783] | < 500 nM
10 | Cc1cc(F)ccc1-c1nnc(C(=O)N2CCc3[nH]cnc3[C@@H]2c2nc3ccccc3s2)o1 [Example 1784, (R)-(4-(benzo[d]thiazol-2-yl)-6,7-dihydro-1H-imidazo[4,5-c]pyridin-5(4H)-yl)(5-(4-fluoro-2-methylphenyl)-1,3,4-oxadiazol-2-yl)methanone] | > 5000 nM
11 | O=C(c1oc(C2CC(F)(F)C2)nc1C(F)F)N1CCc2[nH]cnc2[C@@H]1c1nc2ccccc2s1 [Example 1785, (R)-(4-(benzo[d]thiazol-2-yl)-6,7-dihydro-1H-imidazo[4,5-c]pyridin-5(4H)-yl)(2-(3,3-difluorocyclobutyl)-4-(difluoromethyl)oxazol-5-yl)methanone] | < 500 nM
12 | O=C(c1oc(C2CC(F)(F)C2)nc1C(F)F)N1CCc2[nH]cnc2[C@H]1c1nc2ccccc2s1 [Example 1786] | < 500 nM
13 | Cn1nc(C(F)(F)F)cc1C(=O)N1CCc2[nH]cnc2[C@H]1c1nc2c(F)cccc2s1 [Example 1787, (S)-(4-(4-fluorobenzo[d]thiazol-2-yl)-6,7-dihydro-1H-imidazo[4,5-c]pyridin-5(4H)-yl)(1-methyl-3-(trifluoromethyl)-1H-pyrazol-5-yl)methanone] | 1000 to 5000 nM
14 | Cn1nc(C(F)(F)F)cc1C(=O)N1CCc2[nH]cnc2[C@@H]1c1nc2c(F)cccc2s1 [Example 1788, (R)-(4-(4-fluorobenzo[d]thiazol-2-yl)-6,7-dihydro-1H-imidazo[4,5-c]pyridin-5(4H)-yl)(1-methyl-3-(trifluoromethyl)-1H-pyrazol-5-yl)methanone] | > 5000 nM
15 | O=C(c1nnc(OCCC(F)(F)F)o1)N1CCc2[nH]cnc2[C@@H]1c1nc2ccccc2s1 [Example 1789, (R)-(4-(benzo[d]thiazol-2-yl)-6,7-dihydro-1H-imidazo[4,5-c]pyridin-5(4H)-yl)(5-(3,3,3-trifluoropropoxy)-1,3,4-oxadiazol-2-yl)methanone] | 1000 to 5000 nM
16 | O=C(c1nnc(OCCC(F)(F)F)o1)N1CCc2[nH]cnc2[C@H]1c1nc2ccccc2s1 [Example 1790] | 500 to 1000 nM
17 | O=C(c1nnc(-n2cccn2)o1)N1CCc2[nH]cnc2[C@@H]1c1nc2ccccc2s1 [Example 1791, (R)-(5-(1H-pyrazol-1-yl)-1,3,4-oxadiazol-2-yl)(4-(benzo[d]thiazol-2-yl)-6,7-dihydro-1H-imidazo[4,5-c]pyridin-5(4H)-yl)methanone] | 1000 to 5000 nM
18 | O=C(c1nnc(-n2cccn2)o1)N1CCc2[nH]cnc2[C@H]1c1nc2ccccc2s1 [Example 1792] | < 500 nM

Row | Structure (SMILES) | AC50
19 | O=C(c1nnc(-c2cnn(CC(F)(F)F)c2)o1)N1CCc2[nH]cnc2[C@H]1c1nc2ccccc2s1 [Example 1793, [(4S)-4-(1,3-benzothiazol-2-yl)-1,4,6,7-tetrahydroimidazo[4,5-c]pyridin-5-yl]-[5-[1-(2,2,2-trifluoroethyl)pyrazol-4-yl]-1,3,4-oxadiazol-2-yl]methanone] | < 500 nM
20 | O=C(c1nnc(-c2cnn(CC(F)(F)F)c2)o1)N1CCc2[nH]cnc2[C@@H]1c1nc2ccccc2s1 [Example 1794, [(4R)-4-(1,3-benzothiazol-2-yl)-1,4,6,7-tetrahydroimidazo[4,5-c]pyridin-5-yl]-[5-[1-(2,2,2-trifluoroethyl)pyrazol-4-yl]-1,3,4-oxadiazol-2-yl]methanone] | 1000 to 5000 nM
21 | O=C(c1oc(-c2ccccn2)nc1C(F)F)N1CCc2[nH]cnc2[C@H]1c1nc2ccccc2s1 [Example 1795] | < 500 nM
22 | O=C(c1oc(-c2ccccn2)nc1C(F)F)N1CCc2[nH]cnc2[C@@H]1c1nc2ccccc2s1 [Example 1796, (R)-(4-(benzo[d]thiazol-2-yl)-6,7-dihydro-1H-imidazo[4,5-c]pyridin-5(4H)-yl)(4-(difluoromethyl)-2-(pyridin-2-yl)oxazol-5-yl)methanone] | < 500 nM
23 | O=C(c1oc(-c2ccccn2)nc1C(F)F)N1CCc2[nH]cnc2[C@@H]1c1nc2c(F)cccc2s1 [Example 1797, (R)-(4-(difluoromethyl)-2-(pyridin-2-yl)oxazol-5-yl)(4-(4-fluorobenzo[d]thiazol-2-yl)-6,7-dihydro-1H-imidazo[4,5-c]pyridin-5(4H)-yl)methanone] | < 500 nM
24 | O=C(c1oc(-c2ccccn2)nc1C(F)F)N1CCc2[nH]cnc2[C@H]1c1nc2c(F)cccc2s1 [Example 1798, (S)-(4-(difluoromethyl)-2-(pyridin-2-yl)oxazol-5-yl)(4-(4-fluorobenzo[d]thiazol-2-yl)-6,7-dihydro-1H-imidazo[4,5-c]pyridin-5(4H)-yl)methanone] | < 500 nM
25 | Cn1cc(-c2nc(C(F)F)c(C(=O)N3CCc4[nH]cnc4[C@H]3c3nc4ccccc4s3)o2)cn1 [Example 1799] | < 500 nM
26 | O=C(c1nnc(-c2ccc(F)c(F)c2)o1)N1CCc2[nH]cnc2[C@H]1c1nc2ccccc2s1 [Example 1801] | < 500 nM
27 | O=C(c1nnc(-c2ccc(F)c(F)c2)o1)N1CCc2[nH]cnc2[C@@H]1c1nc2ccccc2s1 [Example 1802, (R)-(4-(benzo[d]thiazol-2-yl)-6,7-dihydro-1H-imidazo[4,5-c]pyridin-5(4H)-yl)(5-(3,4-difluorophenyl)-1,3,4-oxadiazol-2-yl)methanone] | 1000 to 5000 nM
28 | Cn1nc(C(F)F)cc1C(=O)N1CCc2[nH]cnc2[C@H]1c1nc2ccccc2s1 [Example 1803] | < 500 nM
29 | Cn1nc(C(F)F)cc1C(=O)N1CCc2[nH]cnc2[C@@H]1c1nc2ccccc2s1 [Example 1804, (R)-(4-(benzo[d]thiazol-2-yl)-6,7-dihydro-1H-imidazo[4,5-c]pyridin-5(4H)-yl)(3-(difluoromethyl)-1-methyl-1H-pyrazol-5-yl)methanone] | 1000 to 5000 nM
30 | Cn1ccc(-c2nnc(C(=O)N3CCc4[nH]cnc4[C@H]3c3nc4ccccc4s3)o2)n1 [Example 1805] | < 500 nM
31 | Cn1ccc(-c2nnc(C(=O)N3CCc4[nH]cnc4[C@@H]3c3nc4ccccc4s3)o2)n1 [Example 1806, (R)-(4-(benzo[d]thiazol-2-yl)-6,7-dihydro-1H-imidazo[4,5-c]pyridin-5(4H)-yl)(5-(1-methyl-1H-pyrazol-3-yl)-1,3,4-oxadiazol-2-yl)methanone] | 1000 to 5000 nM
32 | COCc1nc(C(F)F)c(C(=O)N2CCc3[nH]cnc3[C@H]2c2nc3ccccc3s2)o1 [Example 1807] | < 500 nM
33 | COCc1nc(C(F)F)c(C(=O)N2CCc3[nH]cnc3[C@@H]2c2nc3ccccc3s2)o1 [Example 1808, (R)-(4-(benzo[d]thiazol-2-yl)-6,7-dihydro-1H-imidazo[4,5-c]pyridin-5(4H)-yl)(4-(difluoromethyl)-2-(methoxymethyl)oxazol-5-yl)methanone] | 1000 to 5000 nM
34 | CC(C)(O)c1nc(C(F)F)c(C(=O)N2CCc3[nH]cnc3[C@H]2c2nc3ccccc3s2)o1 [Example 1809] | < 500 nM
35 | CC(C)(O)c1nc(C(F)F)c(C(=O)N2CCc3[nH]cnc3[C@@H]2c2nc3ccccc3s2)o1 [Example 1810, (R)-(4-(benzo[d]thiazol-2-yl)-6,7-dihydro-1H-imidazo[4,5-c]pyridin-5(4H)-yl)(4-(difluoromethyl)-2-(2-hydroxypropan-2-yl)oxazol-5-yl)methanone] | 1000 to 5000 nM
36 | O=C(c1nnc(-c2ccc(F)cc2F)o1)N1CCc2[nH]cnc2[C@H]1c1nc2ccccc2s1 [Example 1811] | < 500 nM
